{"source": "patent EP3318127A1", "about": "“COMPOSITIONS COMPRISING KHCO3” (BASF SE, priority 2013, dated 2015)", "assay_type_in_all_cases": "cell-based", "key": {"[1]": {"system": "Septoria tritici", "experiment": "Activity against leaf blotch on wheat caused by Septoria tritici (microtiter plate test)", "conditions": "0.25 ppm; 7 days after inoculation, 405 nm"}, "[2]": {"system": "Botrytis cinerea", "experiment": "Activity against the grey mold Botrytis cinerea in the microtiterplate test", "conditions": "7 days after inoculation, 405 nm"}, "[3]": {"system": "Pyricularia oryzae", "conditions": "4 ppm; 7 days after inoculation, 405 nm"}, "[4]": {"system": "Sclerotinia sclerotiorum", "experiment": "Activity against stem rot on wheat caused by Sclerotinia sclerotiorum (microtiter plate test)", "conditions": "7 days after inoculation, 405 nm"}}}
{"smiles": "O=C(Nc1ccccc1-c1ccc(Cl)cc1)c1cccnc1Cl", "note": "[Boscalid, 2-chloro-N-(4'-chlorobiphenyl-2-yl)-nicotinamide]", "values": [{"measurement": "Observed efficacy", "setting": "[1]", "value": 40, "unit": "%"}]}
{"smiles": "Cc1cc(C)nc(Nc2ccccc2)n1", "note": "[Pyrimethanil, 4,6-dimethylpyrimidin-2-ylphenylamine]", "values": [{"measurement": "Observed efficacy", "setting": "[2]; 1 ppm", "value": 39, "unit": "%"}, {"measurement": "Observed efficacy", "setting": "[2]; 4 ppm", "value": 60, "unit": "%"}, {"measurement": "Observed efficacy", "setting": "[3]", "value": 37, "unit": "%"}, {"measurement": "Observed efficacy", "setting": "[4]; 1 ppm", "value": 20, "unit": "%"}, {"measurement": "Observed efficacy", "setting": "[4]; 4 ppm", "value": 27, "unit": "%"}, {"measurement": "Observed efficacy", "setting": "[4]; 16 ppm", "value": 49, "unit": "%"}]}
